The source of these data is US7531663B2, “3-guanidinocarbonyl-1-heteroaryl-indole derivatives, preparation process, their use as medicaments, and pharmaceutical compositions comprising them” (sanofi-aventis Deutschland GmbH, priority 2003, dated 2009).

Series [1] concerns the target T1, NHE1 (Homo sapiens, UniProt P19634).
T1 construct: expressed in transfected cells; host or cells: LAP-1 (parental line without endogenous NHE activity), G418-selected transfectants
Briefly: NHE inhibition FLIPR test (intracellular pH recovery, BCECF) in transfected LAP-1 cell lines. The following applies: transfected LAP-1 cell line expressing NHE1 subtype, BCECF fluorescence, pHi recovery after acidification. In kind it is cell-based. Here is the method: The NHE inhibitory activities (IC50 values) of the compounds according to the invention were determined by a FLIPR test.
The test is performed in the FLIPR (Fluorescent Imaging Plate Reader) equipped with clear-bottomed and black-walled 96-well microtitration plates.
The growth medium for the transfected cells (Iscove+10% foetal calf serum) also comprises G418 as selection antibiotic to ensure the presence of transfected sequences.
The actual test begins by eliminating the growth medium and adding 100 μl of loading buffer per well (5 μM of BCECF-AM [2′,7′-bis(2-carboxyethyl)-5-(6)-carboxyfluoresceine acetoxymethyl ester] in 20 mM of NH4Cl 115 mM of choline chloride, 1 mM of CaCl2, 5 mM of KCl, 20 mM of HEPES and 5 mM of glucose; pH 7.4 (adjusted with KOH). The cells are then incubated for 20 minutes at 37° C. This incubation results in the loading of the fluorescent dye into the cells, the fluorescence intensity of which depends on the pHi, and on the NH4Cl, which results in a slight basification of the cells.
The precursor BCECF-AM, a non-fluorescent dye, is, as an ester, capable of crossing the membrane. The actual dye, which is incapable of crossing the membrane, is released inside the cell by esterases.
After this 20-minute incubation, the loading buffer, which comprises NH4Cl and free BCECF-AM, is removed by washing three times in the cell washing device (Tecan Columbus), each wash being performed with 400 μl of washing buffer (133.8 mM of choline chloride, 4.7 mM of KCl, 1.25 mM of MgCl2, 1.25 mM of CaCl2, 0.97 mM of K2HPO4, 0.23 mM of KH2PO4, 5 mM of HEPES and 5 mM of glucose; pH 7.4 (adjusted with KOH)). The residual volume remaining in the wells is 90 μl (possibly between 50 and 125 μl). This washing step removes the free BCECF-AM and results in an intracellular acidification (pHi of 6.3-6.4) due to the removal of the external ammonium ions.
As the equilibrium of the intracellular ammonium with the aqueous ammonia and the protons, by removal of the extracellular ammonium and by the subsequent immediate crossing of the aqueous ammonia across the cell membrane, is disrupted, the washing process results in intracellular protons remaining, which is the cause of the intracellular acidification. This acidification can result finally in the death of the cells if it lasts long enough. It is important here for the washing buffer to be free of sodium (<1 mM), otherwise the extracellular sodium ions would result in an immediate increase in the pHi on account of the activity of the cloned NHE isoforms. It is also important for all the buffers used (loading buffer, washing buffer and regeneration buffer) not to contain any HCO3-ions, otherwise the presence of bicarbonate would result in the activation of bicarbonate-dependent systems that disrupt the pHi regulation, which systems are contained in the LAP-1 parental cell line.
The microtiter plates containing acidified cells are then transferred (up to 20 minutes after the acidification) to the FLIPR. In the FLIPR, the intracellular fluorescent dye is activated with light of a wavelength of 488 nm, which is generated by an argon laser, and the measuring parameters (laser power, illumination time and diaphragm of the […] camera integrated into the FLIPR) are chosen such that the average value of the fluorescent signal per well is between 30,000 and 35,000 relative fluorescence units.
The actual measurement in the FLIPR starts with a photograph being taken by the CCD camera every two seconds under software control. After 10 seconds, the increase in the intracellular pH is initiated by adding 90 μl of regeneration buffer (133.8 mM of NaCl, 4.7 mM of KCl, 1.25 mM of MgCl2, 1.25 mM of CaCl2, 0.97 mM of K2HPO4, 0.23 mM of KH2PO4, 10 mM of HEPES and 5 mM of glucose; pH 7.4 (adjusted with NaOH)) using a 96-well pipette device incorporated into the FLIPR. Some wells, to which is added pure regeneration buffer, serve as positive controls (100% NHE activity). […]

Structures are written as SMILES. Where a name gives a salt, the structure may show the parent alone.

T1 sequence (P19634 whole entry): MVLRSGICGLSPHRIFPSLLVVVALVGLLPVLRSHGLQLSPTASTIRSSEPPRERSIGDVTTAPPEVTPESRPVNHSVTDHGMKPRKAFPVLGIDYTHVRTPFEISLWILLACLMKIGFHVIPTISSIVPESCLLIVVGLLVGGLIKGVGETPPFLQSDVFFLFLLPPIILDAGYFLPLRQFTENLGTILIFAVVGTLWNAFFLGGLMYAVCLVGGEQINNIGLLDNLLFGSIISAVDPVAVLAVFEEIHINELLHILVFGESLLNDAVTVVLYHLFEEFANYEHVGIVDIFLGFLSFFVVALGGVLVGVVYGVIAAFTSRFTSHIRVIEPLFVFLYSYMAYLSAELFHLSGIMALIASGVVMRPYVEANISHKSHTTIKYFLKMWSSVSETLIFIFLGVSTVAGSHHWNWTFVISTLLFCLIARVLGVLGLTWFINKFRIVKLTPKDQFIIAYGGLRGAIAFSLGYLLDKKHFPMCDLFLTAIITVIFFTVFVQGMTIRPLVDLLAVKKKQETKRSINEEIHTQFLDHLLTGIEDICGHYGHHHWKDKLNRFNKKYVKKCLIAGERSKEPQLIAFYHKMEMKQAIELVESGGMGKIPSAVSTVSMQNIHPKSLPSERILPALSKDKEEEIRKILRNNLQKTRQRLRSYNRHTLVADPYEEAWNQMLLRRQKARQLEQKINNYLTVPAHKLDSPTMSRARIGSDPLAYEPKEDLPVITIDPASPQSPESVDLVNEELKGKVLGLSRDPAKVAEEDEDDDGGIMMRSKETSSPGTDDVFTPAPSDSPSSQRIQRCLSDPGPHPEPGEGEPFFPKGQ

What is called IC50 is the concentration that gives 50% inhibition. Lower therefore signals greater potency. On to `NC(N)=NC(=O)c1cn(-c2cnnc3ccccc23)c2ccccc12` [Example 15, N-[1-(Cinnolin-4-yl)-1H-indole-3-carbonyl]-guanidine trifluoroacetate], for which inhibition in series [1] was half-maximal at 1.5 nM (IC50).
With `NC(N)=NC(=O)c1cn(-c2ccc3ccccc3n2)c2ccccc12` [Example 3, 3-Guanidinocarbonyl-1-(quinol-2-yl)-1H-indole hydrochloride], in series [1], it took 535 nM to reach half-maximal inhibition (IC50). This IC50 is about 360-fold higher than that of the molecule before.
One may read the melting point as the temperature, or range, at which the solid turns liquid. The molecule `Cc1ccc2c(c1)c(C(=O)N=C(N)N)cn2-c1ccc2ccccc2n1.Cl` [Example 5, 3-Guanidinocarbonyl-5-methyl-1-(quinol-2-yl)-1H-indole hydrochloride] had a melting point of 268 °C. Further, in series [1], the 50% inhibitory concentration (IC50) turned out to be 4980 nM.
As for `Cc1ccc2c(c1)c(C(=O)N=C(N)N)cn2-c1ccnc2ccccc12.Cl` [Example 6, 3-Guanidinocarbonyl-5-methyl-1-(quinol-4-yl)-1H-indole hydrochloride], the melting point turned out to be 268 °C. Besides, half-maximal inhibition in series [1] (IC50) required 206 nM.
For `Cl.NC(N)=NC(=O)c1cn(-c2cnc3ccccc3c2)c2ccccc12` [Example 7, 3-Guanidinocarbonyl-1-(quinol-3-yl)-1H-indole hydrochloride] the same measures were 268 °C and 433 nM.
For `N=C(N)NC(=O)c1cn(-c2cc3ccccc3cn2)c2ccccc12` [Example 10, 3-Guanidinocarbonyl-1-(isoquinol-3-yl)-1H-indole hydrochloride], in series [1], the IC50 came to 1870 nM.
The molecule `N=C(N)NC(=O)c1cn(-c2cccc3cccnc23)c2ccccc12` [Example 9, 3-Guanidinocarbonyl-1-(quinol-8-yl)-1H-indole] showed a melting point of 172 °C. This molecule came in with an IC50 in series [1] of 275 nM.
For `COc1ccc2c(c1)c(C(=O)N=C(N)N)c(C)n2-c1cnnc2ccccc12` [Example 16, N-[1-(Cinnolin-4-yl)-5-methoxy-2-meth-yl-1H-indole-3-carbonyl]-guani-dine trifluoroacetate], the IC50 in series [1] worked out at 1670 nM.
The same measure, in the same setting: next, `N=C(N)NC(=O)c1cn(-c2ccnc3ccccc23)c2ccc(Cl)cc12` [Example 14, 5-Chloro-3-guanidinocarbonyl-1-(quinolin-4-yl)-1H-indole]: 2460 nM.
Molecule `Cl.NC(N)=NC(=O)c1cn(-c2nccc3ccccc23)c2ccccc12` [Example 1, 3-Guanidinocarbonyl-1-(isoquinol-1-yl)-1H-indole hydrochloride] showed a melting point of 262 °C. Moreover, 14 nM corresponded to half-maximal inhibition in series [1] (IC50).
For `Cl.NC(N)=NC(=O)c1cn(-c2ccc3ncccc3c2)c2ccccc12` [Example 8, 3-Guanidinocarbonyl-1-(quinol-6-yl)-1H-indole hydrochloride] the same measures were 268 °C and 143 nM.
For `Cl.NC(N)=NC(=O)c1cn(-c2ccnc3ccccc23)c2ccccc12` [Example 2, 3-Guanidinocarbonyl-1-(quinol-4-yl)-1H-indole hydrochloride] the same measures were 270 °C and 4 nM.
For the molecule `N=C(N)NC(=O)c1cn(-c2ccnc3ccccc23)c2ccc(F)cc12` [Example 13, 5-Fluoro-3-guanidinocarbonyl-1-(quinol-4-yl)-1H-indole hydrochloride], the half-inhibitory concentration (IC50) in series [1] was found to be 39 nM.
`N=C(N)NC(=O)c1cn(-c2ccnc3ccccc23)c2cc(F)ccc12` [Example 12, 6-Fluoro-3-guanidinocarbonyl-1-(quinol-4-yl)-1H-indole hydrochloride] showed an IC50 in series [1] of 76 nM.
`Cc1ccc2c(c1)c(C(=O)N=C(N)N)cn2-c1nccc2ccccc12.Cl` [Example 4, 3-Guanidinocarbonyl-1-(isoquinol-1-yl)-5-methyl-1H-indole hydrochloride]: the melting point is 268 °C. For the same molecule, half-maximal inhibition in series [1] (IC50) required 200 nM.
The molecule `COc1ccc2c(C(=O)NC(=N)N)cn(-c3ccnc4ccccc34)c2c1` [Example 11, 3-Guanidinocarbonyl-6-methoxy-1-(quinol-4-yl)-1H-indole dihydrochloride] returned a concentration for half-maximal inhibition (IC50) in series [1] of 47 nM.
